The target of one experiment is T1, AK8 (Homo sapiens, UniProt Q96MA6).
T1 sequence (Q96MA6 1-479): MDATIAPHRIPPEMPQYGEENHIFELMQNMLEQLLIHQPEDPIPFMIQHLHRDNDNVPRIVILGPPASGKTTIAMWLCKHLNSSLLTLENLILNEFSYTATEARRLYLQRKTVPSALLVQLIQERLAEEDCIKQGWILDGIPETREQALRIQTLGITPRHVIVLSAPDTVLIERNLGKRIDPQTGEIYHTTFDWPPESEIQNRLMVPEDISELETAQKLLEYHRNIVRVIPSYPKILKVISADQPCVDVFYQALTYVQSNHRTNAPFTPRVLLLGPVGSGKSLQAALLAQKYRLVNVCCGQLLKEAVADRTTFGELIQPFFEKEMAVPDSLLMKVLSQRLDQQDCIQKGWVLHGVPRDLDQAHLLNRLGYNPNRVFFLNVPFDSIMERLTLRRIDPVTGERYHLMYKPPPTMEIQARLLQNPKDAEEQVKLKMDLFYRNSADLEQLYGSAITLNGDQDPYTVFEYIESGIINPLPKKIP
As to the kind of experiment: AMP-agarose pull-down, anti-FLAG immunoblot. To be noted: AMP immobilised on agarose, preferentially the αAH-AMP resin; 500 mM NaCl lysis buffer; labelled compound. The experiment is classed as binding. A general note: Immunoblotting shows a protein as a band on a membrane.

The target in the next experiment is T2, CFAP45 (Homo sapiens, UniProt Q9UL16).
T2 construct: full length, 551 aa, 66 kDa
T2 sequence (Q9UL16 whole entry): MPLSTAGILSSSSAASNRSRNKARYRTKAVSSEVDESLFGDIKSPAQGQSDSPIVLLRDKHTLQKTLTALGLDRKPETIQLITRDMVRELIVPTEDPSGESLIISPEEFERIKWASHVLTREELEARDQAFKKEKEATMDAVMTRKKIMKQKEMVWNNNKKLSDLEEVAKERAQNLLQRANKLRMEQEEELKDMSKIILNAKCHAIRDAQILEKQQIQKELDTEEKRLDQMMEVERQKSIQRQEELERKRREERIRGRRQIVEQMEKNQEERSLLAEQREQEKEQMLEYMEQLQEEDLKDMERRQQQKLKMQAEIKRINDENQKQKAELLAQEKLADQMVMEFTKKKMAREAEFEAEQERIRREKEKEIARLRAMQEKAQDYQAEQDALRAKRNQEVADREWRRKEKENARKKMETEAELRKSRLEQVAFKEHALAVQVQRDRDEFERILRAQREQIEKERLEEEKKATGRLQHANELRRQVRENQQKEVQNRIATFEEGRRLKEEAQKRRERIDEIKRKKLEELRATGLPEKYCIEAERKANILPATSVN
As to the kind of experiment: AMP-agarose pull-down, immunoblot or silver stain. The experiment is classed as binding. The following applies: AMP immobilised on agarose, best with the 6AH-AMP resin; sperm eluates released with 100 mM free 5'-AMP; 500 mM NaCl lysis buffer, pH 8.0, 4 °C; labelled compound.

On to `Nc1ncnc2c1ncn2[C@@H]1O[C@H](COP(=O)(O)O)[C@@H](O)[C@H]1O` [AMP], for which the “AMP-agarose pull-down, anti-FLAG immunoblot” value at AK8 was “NTAP-AK8 shows affinity to αAH-AMP-agarose following elution and IB with monoclonal anti-FLAG antibody”. Further, the “AMP-agarose pull-down, immunoblot or silver stain” value at CFAP45 is reported as “CFAP45 immunoprecipitates recovered from human sperm (see “Methods”) showed affinity to AMP, especially 6AH-AMP-agarose”.

Source of the values: publication PMC7606486, “CFAP45 deficiency causes situs abnormalities and asthenospermia by disrupting an axonemal adenine nucleotide homeostasis module” (Nature Communications, 2020).
